Assay results from patent publication US20130143955A1, “Cyclic di-GMP-II Riboswitches, Motifs, and Compounds, and Methods for Their Use” (priority 2010, published 2013).
Several values for one entry are separate records, joined by “and”; a condition that tells them apart may be missing. Equal entries are not always repeated.

Key:
[1] = tested on: 864 Cd Tandem RNA (c-di-GMP-II aptamer and group I ribozyme); experiment: Self-splicing assays of the tandem riboswitch-ribozyme; format: biochemical, Clostridium difficile 630; conditions: for Rate constant, product 3′E* (alternative GTP attack product) / Rate constant, product 5′E-3′E (spliced exons): Internally 32P-labeled RNA; for Rate constant, product GTP1 (GTP attack at 5′ SS) / Rate constant, product GTP2 (alternative GTP attack site): Unlabeled RNA, [α-32P]GTP
Description: Initial ribozyme self-splicing reaction conditions were based on those previously reported for use with a group I ribozyme from Tetrahymena thermophile and consisted of incubations at 30° C. in the presence of 50 mM HEPES (pH 7.5 at 23° C.), 100 mM (NH4)2SO4, 5 mM MgCl2, and 0.1 mM GTP. At concentrations of MgCl2 above 10 mM and temperatures at 37° C. or above, the difference between the ligated exons and alternate GTP attack site products became less pronounced. A range of ligand concentrations were tested for both GTP (5 μM to 1 mM) and cyclic di-GMP ([…] to 100 μM) to determine the optimal amounts for splicing activity, based on probable biological relevance and degree of allosteric control.
Splicing assays for wild-type and mutant RNAs were carried out for 30 minutes (unless otherwise noted) under the conditions described above, with the addition of 50 μM GTP and/or 10 μM c-di-GMP when stated. Final RNA concentrations were lower than 1 μM for all reactions. Reaction mixtures containing unlabeled RNA were supplemented with 1 μCi/μL [α-^32P]GTP. Products were separated by denaturing 6% PAGE. Gels were dried and products were subsequently imaged using a PhosphorImager (Molecular Dynamics).
Aliquots from splicing reactions conducted with either 5′ or internally ^32P-labeled 864 Cd Tandem RNAs were removed at various incubation times and the reactions were terminated by the addition of stop buffer (see below). Similarly, time course experiments were conducted with unlabeled 864 Cd Tandem RNAs supplemented with ˜50 nCi/μL [α-^32P]GTP. Reactions were initiated by combining a solution containing RNA only (˜100 pM 5′ ^32P-labeled RNA, ˜1 μM internally ^32P-labeled RNA, or ˜10 nM unlabeled RNA) with a solution containing the buffer and any ligands to yield a final concentration of contents as described above. The two mixtures were briefly pre-heated at 30° C. and the reaction was initiated by the transfer of buffer/ligand solution to the RNA solution. The zero time point was removed prior to initiation of the reaction and immediately placed into an equivalent volume of stop buffer (8 M urea, 20% w/v sucrose, 0.1% SDS, 0.05% bromophenol blue, 0.05% xylene cyanol FF, 0.09 M Tris base, 0.09 M borate, 1 mM EDTA [pH 8.0]). Likewise, subsequent aliquots were removed at each time point and quenched by placement in stop buffer. Reaction products were separated as described above and dried gels were imaged using a PhosphorImager (Molecular Dynamics).
For precursor RNAs that were initially ^32P-labeled, rate constants for product formation were established by determining the yield of specific products relative to the unprocessed or misprocessed RNAs. First, an average background for each lane was calculated and subtracted from intensities of individual bands or lanes. Second, product band intensities were compared to the total intensity of their corresponding lane, which corrected for any differences due to sample loading. Third, the band intensity at time zero was subtracted from the corresponding bands of all other time points. Yields of products from assays conducted with internally ^32P-labeled RNAs were also corrected for the number of uridine nucleotides in the product RNA versus the total number of uridine nucleotides in the precursor RNA (252 nucleotides). This correction allows for direct comparison of the number of molecules present in each product band. The total fraction of RNA processed at 120 minutes is ˜40%. […] This extent of RNA misfolding, particularly in the absense of possible protein factors, is also typical of other large functional RNAs. Thus, at 120 minutes, approximately 80% of the total reactable RNA has undergone processing. The fractions of RNA processed for the internally ^32P-labeled RNA was adjusted to reflect this value of 80% at 120 minutes.
For splicing assays conducted using unlabeled precursor RNAs, determination of rate constants were conducted differently. […]

[2] = tested on: ompR riboswitch (c-di-GMP-II, ompR 5′ UTR); experiment: Single-round transcription termination assay; format: biochemical, C. difficile; conditions: WT ompR construct, c-di-GMP 50 μM
Description: Single round transcription assays were conducted using a method (FIG. 7) adapted as described previously (data not shown) with the following modifications. The elongation mixture contained 50 μM UTP, and 150 μM each of ATP, GTP and CTP. Heparin was added at 0.1 mg/mL at initiation of elongation. For the reactions containing the second messenger, c-di-GMP was added to a final concentration of 50 μM.
A template DNA harboring the 5′ UTR of the ompR gene of C. difficile and its native promoter was prepared by PCR (see Table 4). The predicted intrinsic transcription termination site is 40 nucleotides shorter than the terminus of the template DNA. The ompR riboswitch is predicted to be an ‘ON’ switch based on its architecture. Therefore the full length transcript was expected to undergo decreased termination in the presence of c-di-GMP. Mutant templates M2 and M3 were constructed by PCR and confirmed by sequencing (see Table 4). A template DNA for production of a simulated intrinsic transcription termination product was generated by PCR and was used as a marker during PAGE analysis of transcription products.
Further evidence of aptamer-controlled transcription termination was observed by conducting single-round transcription assays in vitro using another C. difficile c-di-GMP-II construct from the ompR mRNA (FIG. 2C). […]

[3] = GTP + and c-di-GMP +, first 15 minutes

Compound | ratio of alternative attack product (3′E*) to spliced exons (5′E-3′E) ([1]; 120 minutes, absence of c-di-GMP (GTP only)) | Rate constant, product 3′E* (alternative GTP attack product) ([1]; GTP + and c-di-GMP −) [min⁻¹] | Rate constant, product 5′E-3′E (spliced exons) ([1]; GTP + and c-di-GMP −) | Rate constant, product GTP1 (GTP attack at 5′ SS) ([1]; GTP + and c-di-GMP −) [min⁻¹] | Rate constant, product GTP2 (alternative GTP attack site) ([1]; GTP + and c-di-GMP −) [min⁻¹] | EC50 ([1]; 5′ 32P-labeled 864 Cd Tandem RNA, 120 minutes, read-out: S50, concentration of c-di-GMP at which 5′E-3′E is half-maximally processed) | ratio of alternative attack product (3′E*) to spliced exons (5′E-3′E) ([1]; 120 minutes, c-di-GMP present) | increase in initial rate constant for GTP attack at the 5′ SS ([1]; GTP and c-di-GMP versus only GTP, unlabeled RNA, first 15 minutes) [fold] | Rate constant, product 3′E* (alternative GTP attack product) ([1]; GTP + and c-di-GMP +) [min⁻¹] | Rate constant, product 5′E-3′E (spliced exons) ([1]; GTP + and c-di-GMP +) | Rate constant, product GTP1 (GTP attack at 5′ SS) [1, 3] [min⁻¹] | Rate constant, product GTP2 (alternative GTP attack site) [1, 3] [min⁻¹] | increase in the production of spliced exons ([1]; presence versus absence of c-di-GMP, 120 minutes) [fold] | increase in the initial rate constant for spliced product formation ([1]; presence versus absence of c-di-GMP, internally labeled RNA) [fold] | production of full-length RNA transcript (transcription termination control) [2]
Nc1nc2c(ncn2[C@@H]2O[C@H](COP(=O)(O)OP(=O)(O)OP(=O)(O)O)[C@@H](O)[C@H]2O)c(=O)[nH]1 [GTP] | more than 20 fold | 0.024 | 1.1×10^−3 min^−1 | 0.0018 | 0.027 | – | – | – | – | – | – | – | – | – | –
Nc1nc2c(ncn2[C@@H]2O[C@@H]3COP(=O)(O)O[C@H]4[C@@H](O)[C@H](n5cnc6c(=O)[nH]c(N)nc65)O[C@@H]4COP(=O)(O)O[C@H]3[C@H]2O)c(=O)[nH]1 [c-di-GMP, cyclic di-GMP] | – | – | – | – | – | ~30 nM and 30 nM | near equal amounts | ~13 | 0.018 | 1.3×10^−2 min^−1 | 0.023 | 0.023 | ~8 | 12 | robust production of full-length RNA transcript only when c-di-GMP is added
